The source of these data is publication PMC2642980 (Bioorganic & medicinal chemistry letters, 2008).

For series [1] the following is noted: cited from earlier work.
A further series has as its system Caco-2 monolayers. The series can be described thus: Transepithelial transport through Caco-2 monolayers. Conditions: apical pH 6.0 MES to basolateral pH 7.4 HEPES, 21 days post-seeding.
For a further series, the system named is vaccinia virus. The class given is cell-based. Conditions: read-out: EC50 Vaccinia.
The conditions of series [2]: cited from earlier work. This is another data set of the same source.
For series [3] the following is noted: rat.
The next series deals with cowpox virus. The class given is cell-based. Conditions: read-out: EC50 Cowpox.
Series [4] concerns the target T1, human PEPT1 transporter (HeLa/hPEPT1 cells) (Homo sapiens, UniProt P46059).
T1 sequence (P46059 1-708): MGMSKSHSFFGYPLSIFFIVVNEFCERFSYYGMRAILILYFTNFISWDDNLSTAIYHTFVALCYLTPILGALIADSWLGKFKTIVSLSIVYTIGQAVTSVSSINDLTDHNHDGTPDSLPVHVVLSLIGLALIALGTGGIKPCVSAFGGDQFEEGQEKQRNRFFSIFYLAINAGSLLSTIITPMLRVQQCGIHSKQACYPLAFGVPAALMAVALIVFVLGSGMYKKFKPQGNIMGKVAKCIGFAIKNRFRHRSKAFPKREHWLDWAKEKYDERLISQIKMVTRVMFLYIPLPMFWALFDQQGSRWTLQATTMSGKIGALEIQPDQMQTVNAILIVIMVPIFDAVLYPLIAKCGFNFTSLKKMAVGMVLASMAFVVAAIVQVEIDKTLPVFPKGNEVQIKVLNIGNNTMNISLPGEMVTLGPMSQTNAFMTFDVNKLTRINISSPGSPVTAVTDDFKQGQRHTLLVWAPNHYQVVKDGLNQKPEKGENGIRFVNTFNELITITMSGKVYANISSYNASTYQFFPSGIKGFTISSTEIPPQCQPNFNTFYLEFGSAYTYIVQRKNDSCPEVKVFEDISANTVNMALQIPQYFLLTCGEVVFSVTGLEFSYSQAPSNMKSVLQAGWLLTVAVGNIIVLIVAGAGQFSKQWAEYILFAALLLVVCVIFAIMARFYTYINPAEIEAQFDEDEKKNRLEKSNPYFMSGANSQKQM
The series can be described thus: Direct uptake in HeLa cells overexpressing hPEPT1. Conditions: fold uptake over control cells not expressing PEPT1.

Turning to `O=c1[nH]cnc2c1ncn2[C@@H]1O[C@H](CO)[C@@H](O)[C@@H]1O` [ara-H, ara-hypoxanthine], in series [1], the “Fold less potent than vidarabine (antiviral activity)” value was “at least 10 fold”.

The compound `Nc1ncnc2c1ncn2[C@@H]1O[C@H](COC(=O)[C@@H](N)Cc2ccccc2)[C@@H](O)[C@@H]1O` [Compound 7l] showed a Caco-2 permeability in the series with Caco-2 monolayers of 0.668 cm/s × 10^6.

The term EC50 denotes the concentration giving half of the maximal effect. Take “1-Beta-D-arabinofuranosyladenine [Vidarabine]”: the concentration giving a half-maximal response (EC50) with vaccinia virus turned out to be 6.2 µM; in the series with cowpox virus, 12.6 µM. Also, the Solubility in water in series [2] was ~ 0.47 mg/ml. Also, the Caco-2 permeability in the series with Caco-2 monolayers was 0.083 cm/s × 10^6. Moreover, in series [3], the “T1/2 Plasma” value was 25.8 min.

For the compound `CC(C)[C@H](N)C(=O)OCCOCn1cnc2c(=O)[nH]c(N)nc21` [Valacyclovir], the “hPEPT1 control (uptake ratio HeLa/hPEPT1 over HeLa control)” value in series [4] is recorded as 19.0.

The compound `CC[C@H](C)[C@H](N)C(=O)OC[C@H]1O[C@@H](n2cnc3c(N)ncnc32)[C@@H](O)[C@@H]1O` [Compound 7k] came in with a Caco-2 permeability in the series with Caco-2 monolayers of 1.026 cm/s × 10^6. In addition, in series [4], the “hPEPT1 control (uptake ratio HeLa/hPEPT1 over HeLa control)” value is 26.9.

With `CC(C)[C@@H](N)C(=O)OC[C@H]1O[C@@H](n2cnc3c(N)ncnc32)[C@@H](O)[C@@H]1O` [Compound 7a], in the series with Caco-2 monolayers, the Caco-2 permeability worked out at 0.601 cm/s × 10^6.

Take `CC(C)[C@H](N)C(=O)OC[C@H]1O[C@@H](n2cnc3c(N)ncnc32)[C@@H](O)[C@@H]1O` [Compound 7i]: in series [4], the “hPEPT1 control (uptake ratio HeLa/hPEPT1 over HeLa control)” value came out at 20.7.
